Measured values as given in patent US11339163B2, “BRaf inhibitors and use thereof for treatment of cutaneous reactions” (Lutris Pharma Ltd., priority 2017, dated 2022).

What was measured:
Assay in all cases: KinaseProfiler kinase selectivity assay
Type in all cases: biochemical
PKBα(h) = PKBα(h) (Homo sapiens, UniProt P31749)
Description: (§1) All compounds were prepared to 50× final assay concentration in 100% DMSO. This working stock of the compound was added to the assay well as the first component in the reaction, followed by the remaining components. In the standard KinaseProfiler™ service, there is no pre-incubation step between the compound and the kinase prior to initiation of the reaction. The positive control wells contain all components of the reaction, except the compound of interest; however, DMSO (at a final concentration of 2%) is included in these wells to control for solvent effects. The blank wells contain all components of the reaction, with a reference inhibitor replacing the compound of interest. This abolishes kinase activity and establishes the base-line (0% kinase activity remaining).

MSK2(h) = MSK2(h) (Homo sapiens, UniProt O75676)
Description: as §1

MEK1(h) = MEK1(h) (Homo sapiens, UniProt Q02750)
Description: as §1

c-RAF(h) = c-RAF(h) (Homo sapiens, UniProt P04049)
Description: as §1

Pim-1(h) = Pim-1(h) (Homo sapiens, UniProt P11309)
Description: as §1

Rsk1(h) = Rsk1(h) (Homo sapiens, UniProt Q15418)
Description: as §1

CDK7/cyclinH/MAT1(h) = CDK7/cyclinH/MAT1(h) (Homo sapiens, UniProt P50613)
Description: as §1

PKA(h) = PKA(h) (Homo sapiens, UniProt P17612)
Description: as §1

MAPKAP-K2(h) = MAPKAP-K2(h) (Homo sapiens, UniProt P49137)
Description: as §1

eEF-2K(h) = eEF-2K(h) (Homo sapiens, UniProt O00418)
Description: as §1

PKCα(h) = PKCα(h) (Homo sapiens, UniProt P17252)
Description: as §1

[1] = target: PI3 Kinase (p110α/p85α)(h) (Homo sapiens, UniProt P42336)
Description: as §1

CaMKI(h) = CaMKI(h) (Homo sapiens, UniProt Q14012)
Description: as §1

ASK1(h) = ASK1(h) (Homo sapiens, UniProt Q99683)
Description: as §1

Rse(h) = Rse(h) (Homo sapiens, UniProt Q06418)
Description: as §1

[2] = target: PI3 Kinase (p110δ/p85α)(h) (Homo sapiens, UniProt O00329)
Description: as §1

KDR(h) = KDR(h) (Homo sapiens, UniProt P35968)
Description: as §1

CHK1(h) = CHK1(h) (Homo sapiens, UniProt O14757)
Description: as §1

PKCθ(h) = PKCθ(h) (Homo sapiens, UniProt Q04759)
Description: as §1

IKKα(h) = IKKα(h) (Homo sapiens, UniProt O15111)
Description: as §1

ROCK-I(h) = ROCK-I(h) (Homo sapiens, UniProt Q13464)
Description: as §1

EphA5(h) = EphA5(h) (Homo sapiens, UniProt P54756)
Description: as §1

MST1(h) = MST1(h) (Homo sapiens, UniProt Q13043)
Description: as §1

LOK(h) = LOK(h) (Homo sapiens, UniProt O94804)
Description: as §1

IRAK4(h) = IRAK4(h) (Homo sapiens, UniProt Q9NWZ3)
Description: as §1

PRAK(h) = PRAK(h) (Homo sapiens, UniProt Q8IW41)
Description: as §1

DRAK1(h) = DRAK1(h) (Homo sapiens, UniProt Q9UEE5)
Description: as §1

MKK7β(h) = MKK7β(h) (Homo sapiens, UniProt O14733)
Description: as §1

CDK9/cyclin T1(h) = CDK9/cyclin T1(h) (Homo sapiens, UniProt P50750)
Description: as §1

SAPK2a(h) = SAPK2a(h) (Homo sapiens, UniProt Q16539)
Description: as §1

SPRK1(h) = SPRK1(h) (Homo sapiens, UniProt Q96SB4)
Description: as §1

Sequence of ROCK-I(h) (Q13464 whole entry): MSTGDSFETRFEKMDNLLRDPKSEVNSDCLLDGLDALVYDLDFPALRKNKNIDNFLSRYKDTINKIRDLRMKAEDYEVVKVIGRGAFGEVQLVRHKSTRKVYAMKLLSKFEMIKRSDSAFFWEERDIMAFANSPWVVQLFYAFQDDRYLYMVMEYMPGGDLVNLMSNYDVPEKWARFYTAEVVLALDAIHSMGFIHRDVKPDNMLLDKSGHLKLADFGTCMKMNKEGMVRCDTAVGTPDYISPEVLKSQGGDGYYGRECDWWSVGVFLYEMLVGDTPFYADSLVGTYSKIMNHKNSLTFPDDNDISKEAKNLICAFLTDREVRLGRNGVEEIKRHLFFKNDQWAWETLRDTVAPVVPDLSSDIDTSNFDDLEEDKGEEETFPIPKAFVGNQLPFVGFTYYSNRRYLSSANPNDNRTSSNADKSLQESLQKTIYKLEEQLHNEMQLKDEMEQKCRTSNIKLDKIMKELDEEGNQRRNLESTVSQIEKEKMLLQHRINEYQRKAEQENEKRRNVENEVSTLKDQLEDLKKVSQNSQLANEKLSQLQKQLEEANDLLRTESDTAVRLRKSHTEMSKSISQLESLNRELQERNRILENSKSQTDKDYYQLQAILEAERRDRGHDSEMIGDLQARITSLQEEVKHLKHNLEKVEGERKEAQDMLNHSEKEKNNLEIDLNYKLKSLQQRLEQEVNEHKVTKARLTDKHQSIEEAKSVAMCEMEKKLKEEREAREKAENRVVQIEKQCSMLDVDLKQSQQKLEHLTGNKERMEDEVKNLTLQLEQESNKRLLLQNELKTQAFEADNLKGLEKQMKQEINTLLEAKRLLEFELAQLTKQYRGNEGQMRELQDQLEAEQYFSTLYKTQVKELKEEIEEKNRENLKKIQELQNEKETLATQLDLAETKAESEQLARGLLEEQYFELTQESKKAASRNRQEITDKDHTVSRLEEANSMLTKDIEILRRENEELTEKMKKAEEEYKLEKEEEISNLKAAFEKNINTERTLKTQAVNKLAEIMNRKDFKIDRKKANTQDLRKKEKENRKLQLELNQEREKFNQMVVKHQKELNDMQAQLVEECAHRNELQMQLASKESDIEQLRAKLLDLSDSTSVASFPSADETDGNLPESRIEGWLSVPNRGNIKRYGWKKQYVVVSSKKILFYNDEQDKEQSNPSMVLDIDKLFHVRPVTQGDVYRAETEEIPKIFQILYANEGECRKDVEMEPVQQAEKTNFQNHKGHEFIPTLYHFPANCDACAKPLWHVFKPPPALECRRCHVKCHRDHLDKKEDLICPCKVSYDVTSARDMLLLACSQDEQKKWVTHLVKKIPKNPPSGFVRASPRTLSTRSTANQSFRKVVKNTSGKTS
Sequence of CDK7/cyclinH/MAT1(h) (P50613 whole entry): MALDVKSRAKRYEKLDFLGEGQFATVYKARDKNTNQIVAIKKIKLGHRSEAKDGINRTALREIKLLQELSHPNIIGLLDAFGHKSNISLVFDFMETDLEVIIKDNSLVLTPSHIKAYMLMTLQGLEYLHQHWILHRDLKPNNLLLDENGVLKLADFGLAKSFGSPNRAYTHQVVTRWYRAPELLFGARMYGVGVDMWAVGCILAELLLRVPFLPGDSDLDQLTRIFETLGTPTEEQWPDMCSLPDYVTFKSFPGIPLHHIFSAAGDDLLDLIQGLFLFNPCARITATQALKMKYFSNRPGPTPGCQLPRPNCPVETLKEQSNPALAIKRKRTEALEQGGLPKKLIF
Sequence of CDK7/cyclinH/MAT1(h) (P51946 whole entry partner): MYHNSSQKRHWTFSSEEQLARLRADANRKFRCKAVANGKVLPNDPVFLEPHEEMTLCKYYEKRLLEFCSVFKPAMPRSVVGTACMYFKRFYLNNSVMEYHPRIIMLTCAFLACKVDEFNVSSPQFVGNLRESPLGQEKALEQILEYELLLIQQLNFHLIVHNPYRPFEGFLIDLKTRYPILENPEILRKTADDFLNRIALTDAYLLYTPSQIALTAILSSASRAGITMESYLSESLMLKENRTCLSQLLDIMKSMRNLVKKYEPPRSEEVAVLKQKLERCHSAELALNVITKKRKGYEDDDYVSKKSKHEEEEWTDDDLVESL
Sequence of CDK7/cyclinH/MAT1(h) (P51948 whole entry partner): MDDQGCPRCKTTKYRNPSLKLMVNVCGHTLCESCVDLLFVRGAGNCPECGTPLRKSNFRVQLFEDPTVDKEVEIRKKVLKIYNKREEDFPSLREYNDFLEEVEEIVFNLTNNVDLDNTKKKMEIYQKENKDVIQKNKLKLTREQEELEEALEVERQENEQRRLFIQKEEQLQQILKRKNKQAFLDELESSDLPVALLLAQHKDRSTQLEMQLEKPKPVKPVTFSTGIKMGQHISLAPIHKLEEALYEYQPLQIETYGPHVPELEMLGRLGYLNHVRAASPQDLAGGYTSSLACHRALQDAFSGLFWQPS
Sequence of MSK2(h) (O75676 whole entry): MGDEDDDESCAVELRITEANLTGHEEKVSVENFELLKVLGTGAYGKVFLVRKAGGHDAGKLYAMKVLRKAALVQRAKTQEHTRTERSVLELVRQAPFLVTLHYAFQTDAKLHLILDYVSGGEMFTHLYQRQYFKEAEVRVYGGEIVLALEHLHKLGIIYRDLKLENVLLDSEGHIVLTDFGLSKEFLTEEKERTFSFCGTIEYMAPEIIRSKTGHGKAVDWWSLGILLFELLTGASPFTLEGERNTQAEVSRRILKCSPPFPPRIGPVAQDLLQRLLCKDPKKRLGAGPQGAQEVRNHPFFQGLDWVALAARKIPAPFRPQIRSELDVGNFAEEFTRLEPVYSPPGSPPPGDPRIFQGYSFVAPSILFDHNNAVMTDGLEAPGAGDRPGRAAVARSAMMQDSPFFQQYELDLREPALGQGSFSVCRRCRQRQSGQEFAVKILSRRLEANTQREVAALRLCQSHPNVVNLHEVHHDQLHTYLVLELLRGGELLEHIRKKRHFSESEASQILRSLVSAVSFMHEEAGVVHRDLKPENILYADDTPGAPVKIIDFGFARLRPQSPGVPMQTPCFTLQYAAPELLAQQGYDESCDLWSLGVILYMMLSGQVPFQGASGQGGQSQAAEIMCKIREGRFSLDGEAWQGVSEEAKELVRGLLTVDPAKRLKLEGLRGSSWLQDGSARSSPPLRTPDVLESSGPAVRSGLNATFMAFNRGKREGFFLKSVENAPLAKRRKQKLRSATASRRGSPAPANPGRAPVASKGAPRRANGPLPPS
Sequence of DRAK1(h) (Q9UEE5 whole entry): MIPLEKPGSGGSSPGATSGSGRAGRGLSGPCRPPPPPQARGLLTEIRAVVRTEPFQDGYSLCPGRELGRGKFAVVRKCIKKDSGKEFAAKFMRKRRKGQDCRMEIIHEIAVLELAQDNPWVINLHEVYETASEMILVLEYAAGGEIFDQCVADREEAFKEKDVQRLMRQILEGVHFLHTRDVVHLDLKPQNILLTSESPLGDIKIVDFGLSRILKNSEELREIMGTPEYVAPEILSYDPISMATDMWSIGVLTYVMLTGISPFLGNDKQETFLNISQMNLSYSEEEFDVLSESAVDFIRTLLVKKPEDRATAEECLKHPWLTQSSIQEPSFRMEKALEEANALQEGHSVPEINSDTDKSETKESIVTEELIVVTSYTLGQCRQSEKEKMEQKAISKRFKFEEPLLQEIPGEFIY
Sequence of Rsk1(h) (Q15418 whole entry): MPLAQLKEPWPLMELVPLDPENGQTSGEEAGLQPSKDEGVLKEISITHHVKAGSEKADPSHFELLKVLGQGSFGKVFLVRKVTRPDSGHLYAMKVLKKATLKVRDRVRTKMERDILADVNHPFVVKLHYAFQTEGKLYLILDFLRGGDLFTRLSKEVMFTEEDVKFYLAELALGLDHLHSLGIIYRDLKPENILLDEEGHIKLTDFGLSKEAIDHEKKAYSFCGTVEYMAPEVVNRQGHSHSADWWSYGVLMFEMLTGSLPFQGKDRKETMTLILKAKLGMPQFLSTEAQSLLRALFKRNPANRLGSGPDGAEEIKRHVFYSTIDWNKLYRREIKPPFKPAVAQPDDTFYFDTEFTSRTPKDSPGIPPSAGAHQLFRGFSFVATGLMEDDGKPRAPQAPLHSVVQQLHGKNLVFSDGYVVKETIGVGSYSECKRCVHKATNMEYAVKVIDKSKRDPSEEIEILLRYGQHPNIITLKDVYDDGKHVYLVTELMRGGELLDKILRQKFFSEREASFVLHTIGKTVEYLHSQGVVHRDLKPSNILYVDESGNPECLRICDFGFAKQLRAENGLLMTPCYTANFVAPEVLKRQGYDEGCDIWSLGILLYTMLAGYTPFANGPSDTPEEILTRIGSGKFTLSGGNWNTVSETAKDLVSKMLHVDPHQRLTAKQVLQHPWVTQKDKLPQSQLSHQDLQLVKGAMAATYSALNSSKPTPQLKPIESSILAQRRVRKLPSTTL
Sequence of MST1(h) (Q13043 whole entry): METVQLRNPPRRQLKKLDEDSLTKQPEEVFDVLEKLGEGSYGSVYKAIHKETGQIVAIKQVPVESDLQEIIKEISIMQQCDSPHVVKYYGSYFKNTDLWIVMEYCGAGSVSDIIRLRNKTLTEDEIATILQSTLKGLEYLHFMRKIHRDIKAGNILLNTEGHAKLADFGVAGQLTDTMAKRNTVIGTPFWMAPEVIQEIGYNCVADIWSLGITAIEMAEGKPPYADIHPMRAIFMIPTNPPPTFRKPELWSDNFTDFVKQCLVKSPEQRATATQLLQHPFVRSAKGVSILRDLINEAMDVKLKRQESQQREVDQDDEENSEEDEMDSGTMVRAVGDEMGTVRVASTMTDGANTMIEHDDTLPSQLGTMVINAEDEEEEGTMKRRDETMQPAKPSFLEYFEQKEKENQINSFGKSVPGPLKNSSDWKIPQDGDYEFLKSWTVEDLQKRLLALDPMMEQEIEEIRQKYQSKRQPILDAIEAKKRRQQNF

## Cc1ccc2c(Nc3cccc(OC(F)(F)F)c3)nccc2c1Nc1ncccc1-c1ncnc2[nH]cnc12 [LUT014]
PKBα(h); Lut014 @ 0.01 μM
  remaining activity at 0.01 µM: 102%
PKBα(h); Lut014 @ 1 μM
  remaining activity at 1 µM: 105%
MSK2(h); Lut014 @ 0.01 μM
  remaining activity at 0.01 µM: 92%
MSK2(h); Lut014 @ 1 μM
  remaining activity at 1 µM: 96%
MEK1(h); Lut014 @ 0.01 μM
  remaining activity at 0.01 µM: 98%
MEK1(h); Lut014 @ 1 μM
  remaining activity at 1 µM: 105%
c-RAF(h); Lut014 @ 0.01 μM
  remaining activity at 0.01 µM: 105%
c-RAF(h); Lut014 @ 1 μM
  remaining activity at 1 µM: 30%
Pim-1(h); Lut014 @ 0.01 μM
  remaining activity at 0.01 µM: 96%
Pim-1(h); Lut014 @ 1 μM
  remaining activity at 1 µM: 89%
Rsk1(h); Lut014 @ 0.01 μM
  remaining activity at 0.01 µM: 106%
Rsk1(h); Lut014 @ 1 μM
  remaining activity at 1 µM: 112%
CDK7/cyclinH/MAT1(h); Lut014 @ 0.01 μM
  remaining activity at 0.01 µM: 105%
CDK7/cyclinH/MAT1(h); Lut014 @ 1 μM
  remaining activity at 1 µM: 109%
PKA(h); Lut014 @ 0.01 μM
  remaining activity at 0.01 µM: 114%
PKA(h); Lut014 @ 1 μM
  remaining activity at 1 µM: 106%
MAPKAP-K2(h); Lut014 @ 0.01 μM
  remaining activity at 0.01 µM: 110%
MAPKAP-K2(h); Lut014 @ 1 μM
  remaining activity at 1 µM: 103%
eEF-2K(h); Lut014 @ 0.01 μM
  remaining activity at 0.01 µM: 95%
eEF-2K(h); Lut014 @ 1 μM
  remaining activity at 1 µM: 106%
PKCα(h); Lut014 @ 0.01 μM
  remaining activity at 0.01 µM: 102%
PKCα(h); Lut014 @ 1 μM
  remaining activity at 1 µM: 107%
[1]; Lut014 @ 0.01 μM
  remaining activity at 0.01 µM: 92%
[1]; Lut014 @ 1 μM
  remaining activity at 1 µM: 84%
CaMKI(h); Lut014 @ 0.01 μM
  remaining activity at 0.01 µM: 101%
CaMKI(h); Lut014 @ 1 μM
  remaining activity at 1 µM: 97%
ASK1(h); Lut014 @ 0.01 μM
  remaining activity at 0.01 µM: 109%
ASK1(h); Lut014 @ 1 μM
  remaining activity at 1 µM: 99%
Rse(h); Lut014 @ 0.01 μM
  remaining activity at 0.01 µM: 106%
Rse(h); Lut014 @ 1 μM
  remaining activity at 1 µM: 113%
[2]; Lut014 @ 0.01 μM
  remaining activity at 0.01 µM: 96%
[2]; Lut014 @ 1 μM
  remaining activity at 1 µM: 94%
KDR(h); Lut014 @ 0.01 μM
  remaining activity at 0.01 µM: 96%
KDR(h); Lut014 @ 1 μM
  remaining activity at 1 µM: 79%
CHK1(h); Lut014 @ 0.01 μM
  remaining activity at 0.01 µM: 100%
CHK1(h); Lut014 @ 1 μM
  remaining activity at 1 µM: 114%
PKCθ(h); Lut014 @ 0.01 μM
  remaining activity at 0.01 µM: 106%
PKCθ(h); Lut014 @ 1 μM
  remaining activity at 1 µM: 109%
IKKα(h); Lut014 @ 0.01 μM
  remaining activity at 0.01 µM: 105%
IKKα(h); Lut014 @ 1 μM
  remaining activity at 1 µM: 105%
ROCK-I(h); Lut014 @ 0.01 μM
  remaining activity at 0.01 µM: 107%
ROCK-I(h); Lut014 @ 1 μM
  remaining activity at 1 µM: 107%
EphA5(h); Lut014 @ 0.01 μM
  remaining activity at 0.01 µM: 99%
EphA5(h); Lut014 @ 1 μM
  remaining activity at 1 µM: 56%
MST1(h); Lut014 @ 0.01 μM
  remaining activity at 0.01 µM: 98%
MST1(h); Lut014 @ 1 μM
  remaining activity at 1 µM: 112%
LOK(h); Lut014 @ 0.01 μM
  remaining activity at 0.01 µM: 98%
LOK(h); Lut014 @ 1 μM
  remaining activity at 1 µM: 83%
IRAK4(h); Lut014 @ 0.01 μM
  remaining activity at 0.01 µM: 94%
IRAK4(h); Lut014 @ 1 μM
  remaining activity at 1 µM: 109%
PRAK(h); Lut014 @ 0.01 μM
  remaining activity at 0.01 µM: 101%
PRAK(h); Lut014 @ 1 μM
  remaining activity at 1 µM: 103%
DRAK1(h); Lut014 @ 0.01 μM
  remaining activity at 0.01 µM: 99%
DRAK1(h); Lut014 @ 1 μM
  remaining activity at 1 µM: 117%
MKK7β(h); Lut014 @ 0.01 μM
  remaining activity at 0.01 µM: 100%
MKK7β(h); Lut014 @ 1 μM
  remaining activity at 1 µM: 103%
CDK9/cyclin T1(h); Lut014 @ 0.01 μM
  remaining activity at 0.01 µM: 110%
CDK9/cyclin T1(h); Lut014 @ 1 μM
  remaining activity at 1 µM: 98%
SAPK2a(h); Lut014 @ 0.01 μM
  remaining activity at 0.01 µM: 97%
SAPK2a(h); Lut014 @ 1 μM
  remaining activity at 1 µM: 54%
SPRK1(h); Lut014 @ 0.01 μM
  remaining activity at 0.01 µM: 105%
SPRK1(h); Lut014 @ 1 μM
  remaining activity at 1 µM: 100%
